In paper PMC2358886, “Evolution of pharmacologic specificity in the pregnane X receptor” (BMC Evolutionary Biology, 2008):
Like-named read-outs stand apart in the source and are kept apart here.

How the values were obtained:
mouse PXR [1] = target: T1, mouse PXR (Mus musculus, UniProt O54915); assay: cell-based
T1 sequence (O54915 1-431): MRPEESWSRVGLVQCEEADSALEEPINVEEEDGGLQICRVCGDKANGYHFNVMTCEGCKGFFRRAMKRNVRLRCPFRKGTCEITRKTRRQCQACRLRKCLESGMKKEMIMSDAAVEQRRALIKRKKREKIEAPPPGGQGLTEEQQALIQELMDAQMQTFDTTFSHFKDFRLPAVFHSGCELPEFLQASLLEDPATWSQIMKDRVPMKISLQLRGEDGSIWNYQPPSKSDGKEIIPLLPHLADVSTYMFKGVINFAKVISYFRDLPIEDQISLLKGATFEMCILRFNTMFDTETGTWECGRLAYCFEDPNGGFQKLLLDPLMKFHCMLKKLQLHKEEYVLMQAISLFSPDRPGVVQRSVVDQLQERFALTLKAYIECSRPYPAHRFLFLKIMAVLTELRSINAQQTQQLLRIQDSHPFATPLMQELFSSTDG

rabbit PXR = target: T2, rabbit PXR (Oryctolagus cuniculus, UniProt Q9TU02); assay: PXR activation luciferase reporter assay, rabbit PXR; conditions: for Rabbit PXR efficacy, ε: relative to 50 μM 5α-pregnan-3,20-dione, assigned an efficacy of 1.0
T2 sequence (Q9TU02 1-411): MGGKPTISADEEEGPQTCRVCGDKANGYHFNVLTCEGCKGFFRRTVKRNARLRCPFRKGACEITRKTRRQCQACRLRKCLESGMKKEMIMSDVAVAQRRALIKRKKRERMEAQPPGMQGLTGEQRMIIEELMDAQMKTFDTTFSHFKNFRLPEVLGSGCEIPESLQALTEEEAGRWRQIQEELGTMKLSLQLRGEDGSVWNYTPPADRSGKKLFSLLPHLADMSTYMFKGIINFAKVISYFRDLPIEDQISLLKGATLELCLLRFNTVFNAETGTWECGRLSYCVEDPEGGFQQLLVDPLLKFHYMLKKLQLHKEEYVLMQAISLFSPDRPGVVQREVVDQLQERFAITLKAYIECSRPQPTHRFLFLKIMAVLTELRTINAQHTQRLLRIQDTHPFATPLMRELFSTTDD

chicken PXR [2] = target: T3, chicken PXR (Gallus gallus, UniProt Q9DFH3)
T3 sequence (Q9DFH3 1-391): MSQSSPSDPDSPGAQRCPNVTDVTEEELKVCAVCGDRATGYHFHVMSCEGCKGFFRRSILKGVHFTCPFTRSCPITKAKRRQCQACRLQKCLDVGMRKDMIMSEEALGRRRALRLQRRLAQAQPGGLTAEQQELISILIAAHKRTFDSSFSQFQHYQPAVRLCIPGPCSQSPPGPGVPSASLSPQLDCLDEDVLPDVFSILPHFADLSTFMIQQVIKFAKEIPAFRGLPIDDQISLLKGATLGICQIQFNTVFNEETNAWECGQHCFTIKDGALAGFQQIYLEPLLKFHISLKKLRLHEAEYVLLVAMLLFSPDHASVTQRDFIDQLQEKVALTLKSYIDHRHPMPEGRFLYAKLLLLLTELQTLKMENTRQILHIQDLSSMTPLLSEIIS

rat PXR [3] = target: T4, rat PXR (Rattus norvegicus, UniProt Q9R1A7); assay: cell-based
T4 sequence (Q9R1A7 1-431): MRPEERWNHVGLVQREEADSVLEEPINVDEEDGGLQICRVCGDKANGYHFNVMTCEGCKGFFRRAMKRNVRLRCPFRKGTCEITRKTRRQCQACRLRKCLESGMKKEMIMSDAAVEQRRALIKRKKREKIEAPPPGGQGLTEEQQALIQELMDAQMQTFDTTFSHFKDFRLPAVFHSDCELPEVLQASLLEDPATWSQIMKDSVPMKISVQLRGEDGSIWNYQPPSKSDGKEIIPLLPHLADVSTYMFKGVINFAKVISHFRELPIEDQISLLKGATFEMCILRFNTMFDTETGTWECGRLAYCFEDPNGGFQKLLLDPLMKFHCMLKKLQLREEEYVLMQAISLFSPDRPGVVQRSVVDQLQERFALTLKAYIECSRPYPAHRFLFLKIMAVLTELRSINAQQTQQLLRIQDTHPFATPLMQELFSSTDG

chicken PXR [4] = target: T3, chicken PXR; assay: cell-based
mouse PXR [5] = target: T1, mouse PXR
rat PXR [6] = target: T4, rat PXR; conditions: for Rat PXR efficacy, ε: relative to 20 μM pregnenolone 16α-carbonitrile, assigned an efficacy of 1.0
zebrafish PXR [7] = target: T5, zebrafish PXR (Danio rerio, UniProt A5WYG8)
T5 sequence (A5WYG8 144-430): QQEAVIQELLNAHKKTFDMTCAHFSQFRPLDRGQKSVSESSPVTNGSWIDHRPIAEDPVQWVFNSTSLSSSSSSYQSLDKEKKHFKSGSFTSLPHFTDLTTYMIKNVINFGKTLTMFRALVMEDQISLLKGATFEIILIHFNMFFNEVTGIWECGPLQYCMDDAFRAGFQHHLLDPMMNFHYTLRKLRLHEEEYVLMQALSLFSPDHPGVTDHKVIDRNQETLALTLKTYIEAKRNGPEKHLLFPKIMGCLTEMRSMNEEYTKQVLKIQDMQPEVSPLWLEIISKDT

HepG2 cells [8] = assay: Toxicity assays in HepG2 cells (MTT and alamar blue reduction); conditions: lowest concentration that produced significant toxicity in the HepG2 cells
zebrafish PXR [9] = target: T5, zebrafish PXR; assay: cell-based
human PXR [10] = target: T6, human PXR (Homo sapiens, UniProt O75469); assay: PXR activation luciferase reporter assay, human PXR in HepG2-NTCP cells
T6 sequence (O75469 1-434): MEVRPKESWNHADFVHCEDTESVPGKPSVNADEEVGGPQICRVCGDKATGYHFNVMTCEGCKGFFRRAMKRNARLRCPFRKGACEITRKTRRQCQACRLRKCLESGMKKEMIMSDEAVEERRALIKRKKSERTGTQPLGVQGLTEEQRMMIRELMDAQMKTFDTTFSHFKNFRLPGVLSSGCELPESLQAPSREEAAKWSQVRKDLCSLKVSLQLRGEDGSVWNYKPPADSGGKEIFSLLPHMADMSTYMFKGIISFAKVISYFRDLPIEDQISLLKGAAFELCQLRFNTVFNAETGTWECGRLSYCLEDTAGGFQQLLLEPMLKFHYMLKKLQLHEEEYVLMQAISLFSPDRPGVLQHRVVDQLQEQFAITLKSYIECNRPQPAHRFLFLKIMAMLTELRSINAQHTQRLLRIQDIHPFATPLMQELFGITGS

HepG2 cells [11] = system: HepG2 cells
human PXR [12] = target: T6, human PXR; conditions: for hPXR Efficacy: human
[13] = relative to 20 μM pregnenolone 16α-carbonitrile, assigned an efficacy of 1.0
[14] = -log(EC50), EC50 in molar units
[15] = relative to 20 μM 5α-androstan-3α-ol, assigned an efficacy of 1.0
[16] = hPXR Activity, -log(EC50), EC50 in molar units, activation of human PXR

Structure (SMILES)	EC50 (mouse PXR [1])	EC50 (rabbit PXR)	Rabbit PXR efficacy, ε (rabbit PXR)	Chicken PXR efficacy, ε (chicken PXR [2]; chicken)	EC50 (rat PXR [3])	EC50 (chicken PXR [4])	Mouse PXR efficacy, ε (mouse PXR [5]; [13])	Rat PXR efficacy, ε (rat PXR [6])	Toxicity (HepG2 cells [11])	EC50 (zebrafish PXR [9])	further results
CC(C)CCC[C@@H](C)[C@H]1CC[C@H]2[C@@H]3[C@H](O)C[C@@H]4C[C@H](O)CC[C@]4(C)[C@H]3C[C@H](O)[C@]12C [BI023, 5β-Cholestan-3α,7α,12α-triol]	1.41 µM	3.89 µM	0.37	0.27	2.24 µM	1.29 µM	1.23	0.72	–	–	–
C[C@H](CCC(=O)O)[C@H]1CC[C@H]2[C@@H]3CC[C@@H]4C[C@H](O)CC[C@]4(C)[C@H]3C[C@H](O)[C@]12C [BI008, Deoxycholic acid]	–	36.3 µM	0.37	–	10 µM	–	–	0.32	–	–	Chicken PXR Activity (chicken PXR [2]): No effect; Mouse PXR Activity (mouse PXR [5]; [14]): No effect
Clc1cc2c(cc1Cl)Oc1cc(Cl)c(Cl)cc1O2 [MI34, 2,3,7,8-tetrachlorodibenzo-p-dioxin]	0.1 µM	–	–	–	0.2 µM	0.0912 µM	1.60	0.83	–	–	Activation of rabbit PXR (in words) (rabbit PXR): inactive; Rabbit PXR Activity (rabbit PXR; [14]): No effect; Chicken PXR efficacy, ε (chicken PXR [2]; relative to 20 μM nifedipine, assigned an efficacy of 1.0): 0.06; zfPXR Efficacy (zebrafish PXR [7]; [15]): 6.17; Toxicity (HepG2 cells [8]): 10 µM; EC50 (zebrafish PXR [9]; zfPXR Activity, -log(EC50), EC50 in molar units, activation of zebrafish PXR): 0.479 µM; EC50 (human PXR [10]): 0.0676 µM; hPXR Efficacy (human PXR [10]; relative to 10 μM rifampicin, assigned an efficacy of 1.0): 1.78
C[C@H](CCC(=O)NCCS(=O)(=O)O)[C@H]1CC[C@H]2[C@@H]3[C@H](O)C[C@@H]4C[C@H](O)CC[C@]4(C)[C@H]3C[C@H](O)[C@]12C [BI022, Taurocholic acid]	85.1 µM	–	–	–	–	–	–	–	–	–	Chicken PXR Activity (chicken PXR [2]): No effect; Rat PXR Activity (rat PXR [6]; [14]): No effect
CC(=O)[C@H]1CC[C@H]2[C@@H]3CC[C@@H]4CC(=O)CC[C@]4(C)[C@H]3CC[C@]12C [PR2, 5β-Pregnan-3,20-dione]	4.37 µM	12.6 µM	–	5.59 (ε = 0.81)	5.75 µM	2.57 µM	–	–	None	0.832 µM	zfPXR Efficacy (zebrafish PXR [7]; zebrafish): 0.85; Mouse PXR efficacy, ε (mouse PXR [5]; mouse): 5.36 (ε = 0.84); hPXR Efficacy (human PXR [12]): 0.97; EC50 (human PXR [10]; hPXR Activity): 2.57 µM
C[C@@]12CCC[C@H]1[C@@H]1CC[C@H]3C[C@H](O)CC[C@]3(C)[C@H]1CC2 [AN3, 5α-Androstan-3α-ol]	–	–	–	0.85	–	4.17 µM	–	–	None	4.57 µM	zfPXR Efficacy (zebrafish PXR [7]; [15]): 1.00; hPXR Efficacy (human PXR [12]): 0.5; EC50 (human PXR [10]; [16]): 6.31 µM
CC(CCCC(CO)COS(=O)(=O)O)[C@H]1CCC2C3C(C[C@H](O)[C@@]21C)[C@@]1(C)CC[C@@H](O)C[C@@H]1C[C@H]3O (stereo partly drawn) [BI036, 5β-Cholestan-3α,7α,12α,26-tetrol-27-sulfate]	16.6 µM	81.3 µM	0.43	0.61	31.6 µM	30.9 µM	0.29	0.28	None	43.7 µM	Activation of zebrafish PXR (in words) (zebrafish PXR [7]; bile salts): activated; zfPXR Efficacy (zebrafish PXR [7]; zebrafish): 0.75; Activation of human PXR (in words) (human PXR [12]): activated; EC50 (human PXR [10]; [16]): 25.7 µM
